The record followed here is patent US20250270227A1, “CAMPTOTHECIN DERIVATIVE, AND PHARMACEUTICAL COMPOSITION AND USE THEREOF” (SIMCERE ZAIMING PHARMACEUTICAL CO., LTD., priority 2021, published 2025).

Data set [1] has as its system human non-small cell lung cancer cell line A549. As to the kind of experiment: Test 2 of anti-proliferative activity against tumor cells (Cell-Titer Glo). The data set is classed as cell-based. As for the experimental part:
(§1) Cell culture: SK-OV-3 cells were cultured in McCoy's 5a medium containing 10% fetal bovine serum+1% penicillin-streptomycin, PA-1 cells were cultured in MEM medium containing 10% fetal bovine serum+1% MEM NEAA+1% sodium pyruvate+1% penicillin-streptomycin, NCI-H82 cells and MDA-MB-231 cells were cultured in 1640 medium containing 10% fetal bovine serum+1% penicillin-streptomycin, A549 cells were cultured in DMEM medium containing 10% fetal bovine serum+1% penicillin-streptomycin, all under conditions of 37° C. and 5% CO2. Cells in logarithmic growth phase were suitable for the experiment.
(§2) Detection of cell proliferation activity: The inhibitory activity of the compounds on the proliferation of the five cell lines SK-OV-3, PA-1, NCI-H82, MDA-MB-231 and A549 was detected using Cell-Titer Glo reagent. SK-OV-3 cell (1000 cells per well), PA-1 cells (800 cells per well), NCI-H82 cells (5000 cells per well), MDA-MB-231 cells (3000 cells per well) and A549 cells (400 cells per well) were seeded in 96-well plates and cultured at 37° C. and 5% CO2 for 24 h. The compound to be tested was dissolved in DMSO to a concentration of 1 mM, then subjected to gradient dilution with DMSO and corresponding medium, and transferred to 96-well cell plates to a final concentration of 300 nM (initial concentration), with 3-fold dilution and a total of 9 concentration points. The cells were cultured at 37° C. and 5% CO2 for additional 5 days. The cell viability was detected by adding Cell-Titer Glo reagent.
(§3) Additionally, a negative control group and a positive control group were provided as Bottom and Top, respectively. In the negative control group, the cells were not added, only the same volume of medium was added, and other operations were consistent with those in the experimental group; in the positive control group, the test compound was not added, only the same volume of DMSO was added, and other operations were consistent with those in the experimental group.
(§4) Data analysis: The % compound inhibition was calculated, and fitting was performed to obtain IC50 of the compound.
(§5) % Compound inhibition=1−100%*(Signal−Bottom)/(Top−Bottom).
(§6) Signal represents the signal value of the experimental group, Bottom represents the average signal value of the negative control group, and Top represents the average signal value of the positive control group.

In data set [2] the test system is human ovarian cancer cell line PA-1. The data set is described as above. It is filed as cell-based. As for the experimental part: as §1, §2, §3, §4, §5, §6
For data set [3], the system named is human breast cancer cell line MDA-MB-231. The data set is described as above. It is filed as cell-based. The following applies: Homo sapiens, MDA-MB-231, 120 h. As for the experimental part:
as §1, §2, §3, §4, §5, §6

Data set [4] has as its system human small cell lung cancer cell line NCI-H82. The data set is described as above. The data set is classed as cell-based. The following applies: read-out: NCI-H82 Anti-proliferative activity IC50, NCI-H82 cells, 5 days, Cell-Titer Glo. As for the experimental part:
as §1, §2, §3, §4, §5, §6

The subject of data set [5] is Human ovarian cancer cell line SK-OV-3. The data set is described as above. The data set is classed as cell-based. On the procedure:
as §1, §2, §3, §4, §5, §6

The nature of data set [6]: Metabolic stability in liver microsomes. As to conditions: for half-life at 1 μM: CD-1, mouse, microsomes. It is filed as in vitro ADME, mouse. On the procedure:
The metabolic stability of the compounds of the present disclosure in liver microsomes was determined by the following experimental method.
• 1. Human liver microsomes (Corning 452117), Beagle dog liver microsomes (XENOTECH D1000), SD rat liver microsomes (XENOTECH R1000) and CD-1 mouse liver microsomes (XENOTECH M1000) • 2. Na2HPO4 (Tianjin Guangfu Fine Chemical Research Institute 20180130) • 3. KH2PO4 (Tianjin Guangfu Fine Chemical Research Institute 20180920) • 4. MgCl2 (Tianjin Guangfu Fine Chemical Research Institute 20191216) • 5. NADPH (Solarbio 1216C022) • 6. Positive control compound verapamil (Sigma MKBV4993V) • 7. AB Sciex API4000 liquid chromatography-mass spectrometry
• 1. Preparation of 100 mM phosphate buffered saline (PBS): 7.098 g of Na2HPO4 was weighed, 500 mL of pure water was added and subjected to ultrasonic dissolution to obtain solution A. 3.400 g of KH2PO4 was weighed, 250 mL of pure water was added and subjected to ultrasonic dissolution to obtain solution B. Solution A was placed on a stirrer and solution B was slowly added until the pH value reached 7.4 to prepare 100 mM PBS buffer. • 2. Preparation of reaction system
The reaction system was prepared according to the following table:
• 3. The reaction system was placed in a 37° C. water bath and pre-incubated for 10 min. 40 μL of 10 mM NADPH solution (NADPH was dissolved in 100 mM phosphate buffer) was added to the reaction system with the final concentration of NADPH being 1 mM. 40 μL of phosphate buffer was used instead of NADPH solution as negative control. The role of the negative control was to exclude the effect of the chemical stability of the compounds themselves. • 4. 4 μL of 100 μM compound of the present disclosure and the positive control compound verapamil were added to the reaction system to initiate the reaction, with the final concentration of the compound being 1 μM. • 5. After thorough mixing on a vortex oscillator, 50 μL of the incubated sample was taken out at 0.5 min, 15 min, 30 min, 45 min and 60 min, respectively, and the reaction was stopped with 200 μL of glacial acetonitrile containing internal standard. The sample was centrifuged at 3220 g for 45 min. […]
All the data was calculated by the Microsoft Excel software. The peak area was detected by extracting the ion chromatogram. The in vitro half-life (t1/2) of the compound was determined by performing linear fitting of the natural logarithm of elimination percent of the compound and time.
The in vitro half-life (t1/2) was calculated by means of the slope k: […]
The in vitro intrinsic clearance (unit: μL/min/mg protein) was calculated using the following equation: […]

The mark [7] stands for this setting: Homo sapiens, A549, 120 h, read-out: A549 Anti-proliferative activity IC50 (nM), A549 cells, 5 days, Cell-Titer Glo.
Setting [8] is: Homo sapiens, PA-1, 120 h, read-out: PA-1 Anti-proliferative activity IC50 (nM), PA-1 cells, 5 days, Cell-Titer Glo.
Setting [9] is: read-out: MDA-MB-231 Anti-proliferative activity IC50 (nM).
[10] abbreviates: Homo sapiens, SK-OV-3, 120 h, SK-OV-3 cells, 5 days, Cell-Titer Glo, read-out: SK-OV-3 Anti-proliferative activity IC50.
Where [11] appears, read: pH 7.4, mouse liver microsomes 0.5 mg/mL, 1 μM compound, 1 mM NADPH, 37° C., read-out: Stability in mouse liver microsomes t1/2.
The mark [12] stands for this setting: MDA-MB-231 cells, 5 days, Cell-Titer Glo, read-out: MDA-MB-231 Anti-proliferative activity IC50.
The mark [13] stands for this setting: Homo sapiens, PA-1, 120 h, PA-1 cells, 5 days, Cell-Titer Glo, read-out: PA-1 Anti-proliferative activity IC50.
[14] abbreviates: Homo sapiens, SK-OV-3, 120 h, read-out: SK-OV-3 Anti-proliferative activity IC50 (nM).

As a reminder, the IC50 is the concentration needed to halve the response being measured.

The structures appear in SMILES notation. Read-outs that look alike come from different tables or passages of the source.

Take `CC[C@@]1(O)C(=O)OCc2c1cc1n(c2=O)Cc2c-1nc1cc3c(cc1c2CNC(=O)C(O)C1CC1)OCO3` (single isomer, unassigned) [Compound 14-P1]: the IC50 in data set [1] (setting [7]) came to 10.2 nM; in data set [2] (setting [8]), 0.7 nM; in data set [3] (setting [9]), 7.5 nM; in data set [4], 2.2 nM; in data set [5] (setting [10]), 2.2 nM. Moreover, the half-life at 1 μM in data set [6] (setting [11]) came to 1.21 h.
With `CC[C@@]1(O)C(=O)OCc2c1cc1n(c2=O)Cc2c-1nc1cc3c(cc1c2CNC(=O)C(O)C1CC1)OCO3` (single isomer, unassigned) [Compound 14-P2], the IC50 in data set [1] (read-out: A549 Anti-proliferative activity IC50, A549 cells, 5 days, Cell-Titer Glo) worked out at 14.3 nM; in data set [2] (read-out: PA-1 Anti-proliferative activity IC50, PA-1 cells, 5 days, Cell-Titer Glo), 0.9 nM; in data set [3] (setting [12]) it was 8.8 nM; in data set [4], 4.7 nM; in data set [5] (SK-OV-3 cells, 5 days, Cell-Titer Glo, read-out: SK-OV-3 Anti-proliferative activity IC50) it was 3.2 nM. Further, the “Stability in mouse liver microsomes t1/2” value in data set [6] (mouse liver microsomes 0.5 mg/mL, 1 μM compound, 1 mM NADPH, 37° C.) worked out at 1.08 h.
In the case of `CC[C@@]1(O)C(=O)OCc2c1cc1n(c2=O)Cc2c-1nc1cc3c(c(F)c1c2CNC(=O)[C@@H](O)C1CC1)OCO3` (single isomer, unassigned) [Compound 37-P1], the IC50 in data set [1] (Homo sapiens, A549, 120 h, A549 cells, 5 days, Cell-Titer Glo, read-out: A549 Anti-proliferative activity IC50) turned out to be 9.1 nM; in data set [2] (setting [13]), 0.9 nM; in data set [3] (setting [12]), 13.2 nM; in data set [5] (setting [10]), 2.1 nM. Also, the half-life at 1 μM in data set [6] (pH 7.4) turned out to be 2.23 h.
Turning to `CC[C@@]1(O)C(=O)OCc2c1cc1n(c2=O)Cc2c-1nc1cc3c(cc1c2CNC(=O)C(O)C1CC1)OCO3` (stereo partly drawn) [Compound 14, 2-cyclopropyl-N-(((S)-7-ethyl-7-hydroxy-8,11-dioxo-7,8,11,13-tetrahydro-10H-[1,3]dioxolo[4,5-g]pyrano[3′,4′:6,7]indolizino[1,2-b]quinolin-14-yl)methyl)-2-hydroxyacetamide], the half-maximal inhibitory concentration (IC50) in data set [1] (setting [7]) is 9.7 nM; in data set [2] (setting [13]) it was 1 nM; in data set [3] (setting [12]), 10.4 nM; in data set [4] (Homo sapiens, 120 h) it was 3.9 nM; in data set [5] (setting [14]), 3 nM.
For the molecule `[2H]C1([2H])Oc2cc3nc4c(c(CNC(=O)C(O)C5CC5)c3cc2O1)Cn1c-4cc2c(c1=O)COC(=O)[C@]2(O)CC` (stereo partly drawn) [Compound 39, 2-cyclopropyl-N-(((S)-7-ethyl-7-hydroxy-8,11-dioxo-7,8,11,13-tetrahydro-10H-[1,3]dioxolo[4,5-g]pyrano[3′,4′:6,7]indolizino[1,2-b]quinolin-14-yl-2,2-d2)methyl)-2-hydroxyacetamide], the IC50 was found to be 19.1 nM in data set [1] (setting [7]), 1.5 nM in data set [2] (setting [8]), 26.4 nM in data set [3] (setting [9]) and 2.6 nM in data set [5] (setting [14]). In data set [6] (setting [11]), the half-life at 1 μM came out at 4.47 h.
